Test results as given in patent US4238508A, “Method for analgesia using 3-hydroxyacetanilide” (The Research Foundation of State University of New York, priority 1979, dated 1980).

Experiments:
liver [1] = assay: Gross appearance of livers of mice that died after injection; details: white mice
Method: Doses of 400, 600 and 900 milligrams per kilogram of 3-hydroxyacetanilide, of acetaminophen and of normal saline control were administered to white mice.

[2] = Mouse writhing test with 1% acetic acid; assay type: in vivo; details: for Writhes per 5 Minute (SD): 30 minutes prior to test, control 23.2 ± 5.3
Method: To test the effectiveness of 3-hydroxyacetanilide as an analgesic when compared to acetaminophen, a mouse writhing test was used wherein 1% acetic acid is given intraperitoneally 5 minutes prior to counting abdominal writhes made by the animal. The dose of the 1% […] is 0.01 cc/gm of body weight. Prior to counting the writhes, acetaminophen and 3-hydroxyacetanilide were given subcutaneously 30 minutes prior to the test. The control was given normal saline. […] This example therefore illustrates that 3-hydroxyacetanilide is unexpectedly as good an analgesic in this test as acetaminophen and should therefore be used in dosages similar to the dosages known to be effective for actaminophen and since it has almost the same analgesic effect in mice as acetaminophen, it would be expected to have the same analgesic effect as acetaminophen in other mammals.

in vivo = assay: in vivo; design: species or system white mice; details: mouse; for survival at 96 h: ip
Method: ^(a) Mortality determined at 96 hours, all drugs given
intraperitoneally dissolved in saline at 42° C.
receiving same mg dose or saline controls and all acetaminophen groups p
<0.005 using chi square test.

[3] = system: plasma glutamate-pyruvate transaminase (GPT); assay: Plasma glutamate-pyruvate transaminase (GPT) activity in mice; assay type: in vivo; details: for Effect on transaminase activity: 600 mg/kg acetaminophen, 900 mg/kg 3-hydroxyacetanilide; for Transaminase activity in plasma, Mean ± SD: saline 32 ± 18
Method: (§1) The relative effects of 3-hydroxyacetanilide and acetaminophen were compared on plasma glutamate-pyruvate transaminase (GPT) activity. 600 mg/kg of acetaminophen were used in the test; whereas, a larger quantity, 900 mg/kg, of 3-hydroxyacetanilide was used. […] Activity was measured spectrophotometrically at room temperature using a Sigma® Enzyme Kit. The activity is expressed in micromoles per minute per […] of plasma. The blood for the test was collected in a small amount of heparin. Assays were performed within two hours after obtaining the blood. […] There appears to be a correlation between drug dose, amounts of necrosis seen histologically and elevation of transaminase levels.

liver [4] = assay: Hepatic necrosis; assay type: in vivo, mice; details: compared with acetaminophen
Method: as §1

[5] = British Pat. No. 1,006,558; cited from earlier work
[6] = Roberts and Jollow; cited from earlier work
liver glutathione = assay: Effect on liver glutathione levels in mice; assay type: in vivo, mouse; details: 600 mg/kg i.p.; for Depletion of mouse liver glutathione: two hours; for Liver glutathione level: two hours after injection, saline 8.2 ± 0.9
Method: A number of mice were given doses of acetaminophen and 3-hydroxyacetanilideat levels of 600 mg/kg of body weight and a number of mice were given normal saline as a control. […] All values were determined at two hours after intraperitoneal drug injection.

liver [7] = details: acetaminophen-induced hepatic injury, mice; cited from earlier work
[8] = system: plasma glutamate-pyruvate transaminase (GPT); details: mice, acetaminophen-induced hepatic injury; cited from earlier work

SMILES | Gross appearance of liver in mice which died (liver [1]) | Writhes per 5 Minute (SD) ([2]; 200 mg/kg s.c.) | Writhes per 5 Minute (SD) ([2]; 400 mg/kg s.c.) | Analgesic effect compared with acetaminophen ([2]; s.c., 200 and 400 mg/kg) | Reduction of the number of writhes per 5 minutes ([2]; s.c., 200 and 400 mg/kg) | Mortality compared with a comparable dose of acetaminophen (in vivo) | survival at 96 h (in vivo; 400 mg/kg) [%] | survival at 96 h (in vivo; 600 mg/kg) [%] | survival at 96 h (in vivo; 900 mg/kg) [%] | Effect on transaminase activity [3] | Transaminase activity in plasma, Mean ± SD ([3]; 900 mg/kg, n 17) [IU/ml Plasma] | Elevation in plasma GPT activity ([3]; 900 mg/kg, up to 48 hours after treatment) | Hepatic necrosis (liver [4]) | Anti-pyretic activity [5] | Hepatotoxicity relative to acetaminophen [6] | Depletion of mouse liver glutathione (liver glutathione) | Liver glutathione level (liver glutathione) [mg/gram liver] | Hepatic injury, histology (liver [7]) | Time of maximum plasma transaminase levels after dose [8] | Transaminase activity in plasma, Mean ± SD ([3]; 600 mg/kg, n 9) [IU/ml Plasma]
CC(=O)Nc1cccc(O)c1 [3-hydroxyacetanilide] | no significant gross abnormality of the liver | 11.6 ± 8.1 | 1.3 ± 1.4 | statistically insignificant differences | effectively reduced the number of writhes per 5 minutes | considerably less mortality | 96 | 96 | 91 | much less effect | 23 ± 5 | No significant elevation | did not cause a similar level of hepatic necrosis | has anti-pyretic activity | substantially less hepatotoxic than acetaminophen | much less depletion | 6.2 ± 1.2 |  |  | 
CC(=O)Nc1ccc(O)cc1 [Acetaminophen, 4-hydroxyacetanilide, reference compound] | large and grossly congested in appearance | 10.0 ± 6.2 | 3.5 ± 4.0 |  | effectively reduced the number of writhes per 5 minutes |  | 40 | 20 | 20 | drastically affects the transaminase activity |  |  |  |  |  | rapid depletion | 2.4 ± 0.6 | centrilobular necrosis | approximately 6 hours | 1834 ± 771
